Measured values reported in patent publication US20250214977A1, “STAT6 INHIBITORS AND USES THEREOF” (Kymera Therapeutics, Inc., priority 2024, published 2025).

Test system: Phosphorylation of STAT6 in human A549 cells
Experiment: Phosphorylated STAT6 (pSTAT6) flow cytometry assay in human A549 cells
Assay type: cell-based
Conditions: read-out: STAT6 IL4 pSTAT6 assay in A549 cells: Average IC50
Text: Example 3. Phosphorylated STAT6 (pSTAT6) Flow Cytometry Assay in Human A549 Cells
Phosphorylation of STAT6 in human A549 cells was quantitatively measured using flow cytometry technology.

SMILES | IC50 [nM]
COc1ccccc1-c1cc(C2=CCCN(C(=O)CCn3ccnn3)C2)c(F)c2[nH]c(C(=O)N3CCN(c4cc(C#N)ccc4OC)CC3)cc12 [Example I-356, 3-(4-(6-(1-(3-(1H-1,2,3-triazol-1-yl)propanoyl)-1,2,5,6-tetrahydropyridin-3-yl)-7-fluoro-4-(2-methoxyphenyl)-1H-indole-2-carbonyl)piperazin-1-yl)-4-methoxybenzonitrile] | < 100
COc1ccccc1-c1cc(C2=CCCN(C(=O)CCn3ccnn3)C2)c(F)c2[nH]c(C(=O)N3CCN(c4cc(F)cc(F)c4OC)CC3)cc12 [Example I-357] | < 100
COc1ccccc1-c1cc(C2=CCCN(C(=O)CCn3ccnn3)C2)c(F)c2[nH]c(C(=O)N3CCN(c4ncccc4OC(F)F)CC3)cc12 [Example I-358] | < 100
COc1cccc(N2CCN(C(=O)c3cc4c(-c5ccccc5OC)cc(C5=CCCN(C(=O)CCn6ccnn6)C5)c(F)c4[nH]3)CC2)n1 [Example I-359] | < 100
COC(=O)c1ccc(OC)c(N2CCN(C(=O)c3cc4c(-c5ccccc5OC)cc(C5=CCCN(C(=O)CCn6ccnn6)C5)c(F)c4[nH]3)CC2)n1 [Example I-360] | < 100
COc1ccccc1-c1cc(C2=CCCN(C(=O)CCn3ccnn3)C2)c(F)c2[nH]c(C(=O)N3CCN(c4ncccc4F)CC3)cc12 [Example I-361] | < 100
COc1ccccc1-c1cc(C2=CCCN(C(=O)CCn3ccnn3)C2)c(F)c2[nH]c(C(=O)N3CCN(c4nccc5cnccc45)CC3)cc12 [Example I-362] | < 100
COc1ccccc1-c1cc(C2=CCCN(C(=O)CCn3ccnn3)C2)c(F)c2[nH]c(C(=O)N3CCN(c4nccc5ccccc45)CC3)cc12 [Example I-363] | < 100
COc1ccccc1-c1cc(C2CCCN(C(=O)CCn3ccnn3)C2)c(F)c2[nH]c(C(=O)N3CCN(c4ncccc4OC4CC4)CC3)cc12 (centres unmarked) [Example I-364] | < 100
COc1ccccc1-c1cc(C2=CCCN(C(=O)CCn3ccnn3)C2)c(F)c2[nH]c(C(=O)N3CCN(c4ccncc4OC)CC3)cc12 [Example I-365] | < 100
COc1cnccc1-c1cc(C2=CCCN(C(=O)CCn3ccnn3)C2)c(F)c2[nH]c(C(=O)N3CCN(c4ncccc4OC)CC3)cc12 [Example I-366] | < 100
COc1ccccc1-c1cc(C2=CCCN(C(=O)CCn3ccnn3)C2)c(F)c2[nH]c(C(=O)N3CCN(c4c(F)cccc4OC)CC3)cc12 [Example I-367] | < 100
COc1ccccc1-c1cc(C2=CCCN(C(=O)CCn3ccnn3)C2)c(F)c2[nH]c(C(=O)N3CCN(c4ncc(Cl)cc4OC)CC3)cc12 [Example I-369] | < 100
COc1ccccc1-c1cc(C2=CCCN(C(=O)CCn3ccnn3)C2)c(F)c2[nH]c(C(=O)N3CCN(c4ncc(F)cc4OC)CC3)cc12 [Example I-370] | < 100
COc1cccnc1N1CCN(C(=O)c2cc3c(-c4cccc(F)c4F)cc(C4=CCCN(C(=O)CCn5ccnn5)C4)c(F)c3[nH]2)CC1 [Example I-371] | < 100
CN(C)C(=O)c1cc2cc(C3=CCCN(C(=O)C4Cc5c(N)cccc5CN4C=O)C3)ccc2o1 (centres unmarked) [Example I-372] | 100 to 1000
C#Cc1cc(C2=CCCN(C(=O)CCn3ccnn3)C2)cc2cc(C(=O)N(C)C)oc12 [Example I-373, 5-(1-(3-(1H-1,2,3-triazol-1-yl)propanoyl)-1,2,5,6-tetrahydropyridin-3-yl)-7-ethynyl-N,N-dimethylbenzofuran-2-carboxamide] | 100 to 1000
CN(C)C(=O)c1cc2c(F)c(C3=CCCN(C(=O)C4Cc5ccccc5CN4C=O)C3)ccc2o1 (centres unmarked) [Example I-374, 4-fluoro-5-(1-(2-formyl-1,2,3,4-tetrahydroisoquinoline-3-carbonyl)-1,2,5,6-tetrahydropyridin-3-yl)-N,N-dimethylbenzofuran-2-carboxamide] | < 100
COc1ccc(F)cc1-c1cc(C2=CCCN(C(=O)CCn3ccnn3)C2)c(F)c2[nH]c(C(=O)N3CCN(c4ncccc4OC)CC3)cc12 [Example I-395] | > 100000
COc1cccnc1N1CCN(C(=O)c2cc3c(-c4ccc5ccccc5c4OC)cc(C4=CCCN(C(=O)CCn5ccnn5)C4)c(F)c3[nH]2)CC1 [Example I-396] | > 100000
COc1cccnc1N1CCN(C(=O)c2cc3c(-c4cccc5ccccc45)cc(C4=CCCN(C(=O)CCn5ccnn5)C4)c(F)c3[nH]2)CC1 [Example I-397] | > 100000
COc1cccnc1N1CCN(C(=O)c2cc3c(-c4cccc(F)c4OC)cc(C4=CCCN(C(=O)CCn5ccnn5)C4)c(F)c3[nH]2)CC1 [Example I-399] | > 100000
COc1ccncc1-c1cc(C2=CCCN(C(=O)CCn3ccnn3)C2)c(F)c2[nH]c(C(=O)N3CCN(c4ccccc4)CC3)cc12 [Example I-400] | > 100000
COc1ccccc1-c1cc(C2=CCCN(C(=O)CCn3ccnn3)C2)c(F)c2[nH]c(C(=O)N3CCN(c4cc5cc[nH]c5nc4C#N)CC3)cc12 [Example I-401] | > 100000
COc1cccnc1N1CCN(C(=O)c2cc3c(-c4cnc5ccccc5c4OC)cc(C4=CCCN(C(=O)CCn5ccnn5)C4)c(F)c3[nH]2)CC1 [Example I-402] | > 100000
COc1ccccc1N1CCN(C(=O)c2cc3c(-c4cnccc4OC(C)C)cc(C4=CCCN(C(=O)CCn5ccnn5)C4)c(F)c3[nH]2)CC1 [Example I-403] | > 100000
COc1ccccc1N1CCN(C(=O)c2cc3c(-c4cnccc4OC(C)(C)C)cc(C4=CCCN(C(=O)CCn5ccnn5)C4)c(F)c3[nH]2)CC1 [Example I-404] | > 100000

SMILES | IC50 [nM]
COc1ccccc1N1CCN(C(=O)c2cc3c(-c4cnccc4OCF)cc(C4=CCCN(C(=O)CCn5ccnn5)C4)c(F)c3[nH]2)CC1 [Example I-405] | > 100000
CCOc1ccncc1-c1cc(C2=CCCN(C(=O)CCn3ccnn3)C2)c(F)c2[nH]c(C(=O)N3CCN(c4ccccc4OC)CC3)cc12 [Example I-406] | > 100000
COc1cnccc1-c1cc(C2=CCCN(C(=O)CCn3ccnn3)C2)c(F)c2[nH]c(C(=O)N3CCN(c4ccccc4OC)CC3)cc12 [Example I-407] | > 100000
COc1cnccc1-c1cc(C2=CCCN(C(C)=O)C2)c(F)c2[nH]c(C(=O)N3CCN(c4ncccc4OC)CC3)cc12 [Example I-408] | > 100000
COc1ccncc1-c1cc(C2=CCCN(C(C)=O)C2)c(F)c2[nH]c(C(=O)N3CCN(c4ccccc4OC)CC3)cc12 [Example I-409] | > 100000
COc1cccnc1N1CCN(C(=O)c2cc3c(-c4cccnc4OC)cc(C4=CCCN(C(=O)CCn5ccnn5)C4)c(F)c3[nH]2)CC1 [Example I-410] | > 100000
COc1cccnc1N1CCN(C(=O)c2cc3c(-c4cccc(Cl)c4OC)cc(C4=CCCN(C(=O)CCn5ccnn5)C4)c(F)c3[nH]2)CC1 [Example I-411] | > 100000
CCOc1ccccc1-c1cc(C2=CCCN(C(=O)CCn3ccnn3)C2)c(F)c2[nH]c(C(=O)N3CCN(c4ncccc4OC)CC3)cc12 [Example I-412] | > 100000
COc1ccccc1-c1cc(C2=CCCN(C(=O)CCn3ccnn3)C2)c(F)c2[nH]c(C(=O)N3CCN(c4ncc(C5CC5)cc4OC4CC4)CC3)cc12 [Example I-413] | 100 to 1000
COc1ccccc1-c1cc(C2=CCCN(C(=O)CCn3ccnn3)C2)c(F)c2[nH]c(C(=O)N3CCN(c4c(OC)cccc4Oc4ccccc4)CC3)cc12 [Example I-414] | 100 to 1000
COc1ccccc1-c1cc(C2=CCCN(C(=O)CCn3ccnn3)C2)c(F)c2[nH]c(C(=O)N3CCN(c4nccc(C)c4OC)CC3)cc12 [Example I-415] | < 100
COc1ccccc1-c1cc(C2=CCCN(C(=O)CCn3ccnn3)C2)c(F)c2[nH]c(C(=O)N3CCN(c4ncc(N(C)C)cc4OC)CC3)cc12 [Example I-416] | < 100
COc1ccccc1-c1cc(C2=CCCN(C(=O)CCn3ccnn3)C2)c(F)c2[nH]c(C(=O)N3Cc4cn(-c5ncccc5OC)cc4C3)cc12 [Example I-417] | < 100
COc1ccccc1-c1cc(C2=CCCN(C(=O)CCn3ccnn3)C2)c(F)c2[nH]c(C(=O)N3CCN(c4ccccc4F)CC3)cc12 [Example I-418] | < 100
COc1ccccc1-c1cc(C2=CCCN(C(=O)CCn3ccnn3)C2)c(F)c2[nH]c(C(=O)N3CCN(c4ccccc4)CC3)cc12 [Example I-419] | < 100
COc1ccccc1-c1cc(C2=CCCN(C(=O)CCn3ccnn3)C2)c(F)c2[nH]c(C(=O)N3CCN(c4ccccc4OC(F)(F)F)CC3)cc12 [Example I-420] | 100 to 1000
COc1ccccc1-c1cc(C2=CCCN(C(=O)CCn3ccnn3)C2)c(F)c2[nH]c(C(=O)N3CCN(c4ccccc4C)CC3)cc12 [Example I-421] | < 100
COc1ccccc1-c1cc(C2=CCCN(C(=O)CCn3ccnn3)C2)c(F)c2[nH]c(C(=O)N3CCC(c4ccccc4OC)CC3)cc12 [Example I-422] | < 100
COc1ccccc1-c1cc(C2=CCCN(C(=O)CCn3ccnn3)C2)c(F)c2[nH]c(C(=O)N3CCN(c4ccccc4Cl)CC3)cc12 [Example I-423] | < 100
COc1ccccc1-c1cc(C2=CCCN(C(=O)CCn3ccnn3)C2)c(F)c2[nH]c(C(=O)N3CCN(c4c(F)cccc4OC4CC4)CC3)cc12 [Example I-424] | < 100
COc1ccccc1-c1cc(C2=CCCN(C(=O)CCn3ccnn3)C2)c(F)c2[nH]c(C(=O)N3CC=C(c4ncccc4OC)CC3)cc12 [Example I-425] | < 100
COc1ccccc1N1CCN(C(=O)c2cc3c(-c4cnccc4OC(F)F)cc(C4=CCCN(C(=O)CCn5ccnn5)C4)c(F)c3[nH]2)CC1 [Example I-426] | < 100
COc1ccccc1-c1cc(C2=CCCN(C(=O)CCn3ccnn3)C2)c(F)c2[nH]c(C(=O)N3CCN(c4cccc(OC(F)F)c4)CC3)cc12 [Example I-427] | < 100
COc1ccncc1-c1cc(C2=CCCN(C(=O)CCn3ccnn3)C2)c(F)c2[nH]c(C(=O)N3CCN(c4ncc(F)cc4OC)CC3)cc12 [Example I-428] | < 100
COc1ccncc1-c1cc(C2=CCCN(C(=O)CCn3ccnn3)C2)c(F)c2[nH]c(C(=O)N3CCN(c4ncncc4OC)CC3)cc12 [Example I-429] | < 100
COc1ccccc1-c1cc(C2=CCCN(C(=O)CCn3ccnn3)C2)c(F)c2[nH]c(C(=O)N3CCN(c4cccc(OC(F)(F)F)n4)CC3)cc12 [Example I-430] | 100 to 1000
